From patent US4278797A, “Intermediates to phenylmorphans and method of preparation thereof” (priority 1980, dated 1981)
Read-outs that look alike come from different tables or passages of the source.

Experiments:
[1] = compared with morphine or with 5-(3-hydroxyphenyl)-2-methylmorphan; literature; cited from earlier work
[2] = literature; cited from earlier work
Mouse writhing = assay: mouse writhing test (intraperitoneal acetic acid); type: in vivo, mice; conditions: dose reducing writhing by fifty percent; for ED50: Mus musculus
Source text: In another test designed to show analgesic activity, mice are given an intraperitaneal injection of acetic acid which causes the animals to writh. An effective analgesic is one that reduces the writhings. Column 3 of the following table presents the effective sucutaneous and oral doses in mg/kg of a compound of this invention required to reduce the writing in test animals by fifty percent (ED50).

Rat tail jerk = assay: rat-tail jerk assay (light beam or heat source applied to the tail); type: in vivo; conditions: dose causing a two second delay in tail removal compared to control animals receiving no drug; for ED (2 s delay): Rattus norvegicus, sc, subcutaneous, read-out: Rat tail jerk subcutaneous injection ED2 seconds
Procedure: The phenylmorphan derivatives provided by this invention are useful as analgesics in the treatment of pain in animals suffering from pain and in need of treatment. […] One such test is the rat-tail jerk assay. In this test, a light beam or heat source is applied to the tail of a rat. The pain threshold of the animal is measured by the latency of the rat to remove its tail from the pain source. Column 2 in the following table presents the effective subcutaneous dose in mg/kg of a number of the compounds of this invention which causes a two second delay (ED2 sec) in tail removal compared to the control animals receiving no drug.

[3] = sc, subcutaneous, read-out: Mouse writhing s.c. ED50
[4] = oral, read-out: Mouse writhing oral ED50

SMILES	ED50 (Mouse writhing; [3])	ED50 (Mouse writhing; [4])	ED (2 s delay) (Rat tail jerk)	further results
CN1CCC2(c3cccc(O)c3)CCCC1C2 (racemic) [racemic 5-(3-hydroxyphenyl)-2-methylmorphan, 5-(3-hydroxyphenyl)-2-methylmorphan]				analgesic potency [1]: nearly equivalent to that of morphine
CN1CCC2(c3cccc(O)c3)CCCC1C2 (single isomer, unassigned; (-)) [(-)-isomer of 5-(3-hydroxyphenyl)-2-methylmorphan, (-)-5-(3-hydroxyphenyl)-2-methylmorphan]				physical dependence capacity [2]: no physical dependence capacity; analgesic potency [1]: morphine-like potency
CC1CC2CC(c3cccc(O)c3)(C1)CC(C)N2C (stereo not drawn) [2,3,7-Trimethyl-5-(3-hydroxyphenyl)morphan]	0.66 mg/kg	14 mg/kg	0.5 mg/kg	
COc1cccc(C23CC(C)CC(C2)N(C)C(C)C3)c1 (stereo not drawn) [2,3,7-Trimethyl-5-(3-methoxyphenyl)morphan]	7.8 mg/kg	22 mg/kg	20 mg/kg	
CC1CC2(c3cccc(O)c3)CCCC(C2)N1C (stereo not drawn) [2,3-dimethyl-5-(3-hydroxyphenyl)morphan, 2,3-Dimethyl-5-(3-hydroxyphenyl)morphan]	2 mg/kg	23 mg/kg	2 mg/kg	
COc1cccc(C23CCCC(C2)N(C)C(C)C3)c1 (stereo not drawn) [2,3-dimethyl-5-(3-methoxyphenyl)morphan, 2,3-Dimethyl-5-(3-methoxyphenyl)morphan]				Mouse writhing oral ED50 (Mouse writhing; oral): 17.0 mg/kg; Mouse writhing s.c. ED50 (Mouse writhing; subcutaneous): 13.0 mg/kg; Rat tail jerk subcutaneous injection ED2 seconds (Rat tail jerk): 15.0 mg/kg
CC1CC2CC(c3cccc(O)c3)(CCN2C)C1 (stereo not drawn) [2,7-dimethyl-5-(3-hydroxyphenyl)morphan, 2,7-Dimethyl-5-(3-hydroxyphenyl)morphan]	0.72 mg/kg	28.5 mg/kg	0.5 mg/kg	
COc1cccc(C23CCN(C)C(CC(C)C2)C3)c1 (stereo not drawn) [2,7-dimethyl-5-(3-methoxyphenyl)morphan, 2,7-Dimethyl-5-(3-methoxyphenyl)morphan]	3.5 mg/kg	28.5 mg/kg	10 mg/kg	
CN1CCC2(c3cccc(O)c3)CCCC1C2 (stereo not drawn) [2-methyl-5-(3-hydroxyphenyl)-morphan, 2-Methyl-5-(3-hydroxyphenyl)morphan]	1.3 mg/kg	29 mg/kg	1 mg/kg	
COc1cccc(C23CCCC(C2)N(C)CC3)c1 (stereo not drawn) [2-methyl-5-(3-methoxyphenyl)-morphan, 2-Methyl-5-(3-methoxyphenyl)morphan]	9.6 mg/kg	27.5 mg/kg	10 mg/kg	
